In PubChem BioAssay (NCI):
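In this assay, cells in 96-well plates receive the compound at five concentrations for 48 hours. Endpoints are linearly interpolated between the surrounding concentrations. GI50 = concentration required for 50% inhibition of growth. Definition used: TGI = concentration required for complete inhibition of growth.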

Tests used:
Experiment in all cases: inhibition of tumour cell growth, NCI panel, 48 h
[1] = system: NCI-H460 lung
[2] = system: NCI-H226 lung
[3] = system: OVCAR-3 ovarian
[4] = system: HT29 colon
[5] = system: M14 melanoma
[6] = system: HCC-2998 colon
[7] = system: NCI-H23 lung
[8] = system: TK-10 renal
[9] = system: SR leukemia
[10] = system: MDA-MB-435
[11] = system: HCT-15 colon
[12] = system: SK-MEL-5 melanoma
[13] = system: RPMI-8226 leukemia
[14] = system: CAKI-1 renal
[15] = system: SF-268 CNS
[16] = system: SK-OV-3 ovarian
[17] = system: A498 renal
[18] = system: HS 578T breast
[19] = system: OVCAR-4 ovarian
[20] = system: SNB-19 CNS
[21] = system: MOLT-4 leukemia
[22] = system: SW-620 colon
[23] = system: CCRF-CEM leukemia
[24] = system: UACC-257 melanoma
[25] = system: NCI/ADR-RES ovarian
[26] = system: MDA-MB-231 breast
[27] = system: MALME-3M melanoma
[28] = system: U251 CNS
[29] = system: K-562 leukemia
[30] = system: PC-3 prostate
[31] = system: HOP-62 NSCLC
[32] = system: SNB-75 CNS
[33] = system: HL-60(TB) leukemia
[34] = system: HCT-116 colon
[35] = system: SF-295 CNS
[36] = system: IGROV1 ovarian
[37] = system: A549 NSCLC
[38] = system: HOP-92 NSCLC
[39] = system: T-47D breast
[40] = system: RXF 393 renal
[41] = system: DU-145 prostate
[42] = system: UO-31 renal
[43] = system: UACC-62 melanoma
[44] = system: MCF7 breast
[45] = system: KM12 colon
[46] = system: LOX IMVI melanoma
[47] = system: 786-0 renal
[48] = system: NCI-H522 lung
[49] = system: SN12C renal
[50] = system: OVCAR-8 ovarian
[51] = system: COLO 205 colon
[52] = system: BT-549 breast
[53] = system: ACHN renal
[54] = system: EKVX NSCLC
[55] = system: SK-MEL-2 melanoma
[56] = system: SF-539 CNS
[57] = system: SK-MEL-28 melanoma
[58] = system: OVCAR-5 ovarian

Structure (SMILES): Cc1ccc(Oc2nc3ccccc3cc2-c2nnc(Cn3c(COc4ccccc4)nc4ccccc43)o2)cc1
- GI50 [1]: 10.4 µM
- TGI [1]: 24.4 µM
- GI50 [2]: 5.99 µM
- TGI [2]: 31.4 µM
- GI50 [3]: 2410 nM
- TGI [3]: 6.65 µM
- GI50 [4]: 2020 nM
- TGI [4]: 4.43 µM
- GI50 [5]: 2330 nM
- TGI [5]: 7.4 µM
- GI50 [6]: 4.4 µM
- TGI [6]: 15.3 µM
- GI50 [7]: 4.66 µM
- TGI [7]: 20.7 µM
- GI50 [8]: 3.91 µM
- TGI [8]: 9.92 µM
- GI50 [9]: 734 nM
- TGI [9]: 8.53 µM
- GI50 [10]: 3.06 µM
- TGI [10]: 11.9 µM
- GI50 [11]: 2140 nM
- TGI [11]: 7.69 µM
- GI50 [12]: 1900 nM
- TGI [12]: 3.97 µM
- GI50 [13]: 2390 nM
- TGI [13]: 8.45 µM
- GI50 [14]: 2290 nM
- TGI [14]: 14.9 µM
- GI50 [15]: 3.41 µM
- TGI [15]: 15.9 µM
- GI50 [16]: 11.8 µM
- TGI [16]: 32.7 µM
- GI50 [17]: 409 nM
- TGI [17]: 18.7 µM
- GI50 [18]: 4.39 µM
- TGI [18]: 33.8 µM
- GI50 [19]: 2360 nM
- TGI [19]: 10.2 µM
- GI50 [20]: 3.78 µM
- TGI [20]: 17 µM
- GI50 [21]: 2180 nM
- TGI [21]: 7.89 µM
- GI50 [22]: 1080 nM
- TGI [22]: 4.79 µM
- GI50 [23]: 414 nM
- TGI [23]: 3.74 µM
- GI50 [24]: 3.28 µM
- TGI [24]: 14.9 µM
- GI50 [25]: 2840 nM
- TGI [25]: 10.9 µM
- GI50 [26]: 1640 nM
- TGI [26]: 4.62 µM
- GI50 [27]: 3.65 µM
- TGI [27]: 15.6 µM
- GI50 [28]: 1580 nM
- TGI [28]: 3.62 µM
- GI50 [29]: 2590 nM
- TGI [29]: > 100 µM
- GI50 [30]: 2710 nM
- TGI [30]: 15.4 µM
- GI50 [31]: 2980 nM
- TGI [31]: 13 µM
- GI50 [32]: 2160 nM
- TGI [32]: 9.74 µM
- GI50 [33]: 2850 nM
- TGI [33]: 7.88 µM
- GI50 [34]: 431 nM
- TGI [34]: 1640 nM
- GI50 [35]: 3.48 µM
- TGI [35]: 14.1 µM
- GI50 [36]: 3.25 µM
- TGI [36]: 22 µM
- GI50 [37]: 8.5 µM
- TGI [37]: 24.2 µM
- GI50 [38]: 1270 nM
- TGI [38]: 5.37 µM
- GI50 [39]: 2610 nM
- TGI [39]: 14.6 µM
- GI50 [40]: 2710 nM
- TGI [40]: 10.6 µM
- GI50 [41]: 5.46 µM
- TGI [41]: 45.7 µM
- GI50 [42]: 1190 nM
- TGI [42]: 10.2 µM
- GI50 [43]: 5.62 µM
- TGI [43]: 20.7 µM
- GI50 [44]: 949 nM
- TGI [44]: 5.38 µM
- GI50 [45]: 2850 nM
- TGI [45]: 11.8 µM
- GI50 [46]: 1590 nM
- TGI [46]: 4.32 µM
- GI50 [47]: 3.09 µM
- TGI [47]: 11.8 µM
- GI50 [48]: 6.34 µM
- TGI [48]: 21.1 µM
- GI50 [49]: 2760 nM
- TGI [49]: 11.9 µM
- GI50 [50]: 2120 nM
- TGI [50]: 7.52 µM
- GI50 [51]: 1890 nM
- TGI [51]: 4.44 µM
- GI50 [52]: 1770 nM
- TGI [52]: 4.06 µM

Structure (SMILES): Cc1cccc2c1C/C(=C\c1cccc(C)c1C(=O)O)C2=O
- TGI [53]: > 100 µM
- TGI [1]: > 100 µM
- TGI [2]: > 100 µM
- TGI [3]: > 100 µM
- TGI [4]: > 100 µM
- TGI [5]: > 100 µM
- TGI [6]: > 100 µM
- TGI [7]: > 100 µM
- TGI [8]: > 100 µM
- TGI [9]: > 100 µM
- TGI [10]: > 100 µM
- TGI [11]: > 100 µM
- TGI [12]: > 100 µM
- TGI [13]: > 100 µM
- TGI [14]: > 100 µM
- TGI [15]: > 100 µM
- TGI [17]: > 100 µM
- TGI [18]: > 100 µM
- TGI [19]: > 100 µM
- TGI [20]: > 100 µM
- TGI [21]: > 100 µM
- TGI [22]: > 100 µM
- TGI [23]: > 100 µM
- TGI [24]: > 100 µM
- TGI [25]: > 100 µM
- TGI [27]: > 100 µM
- TGI [28]: > 100 µM
- TGI [29]: > 100 µM
- TGI [30]: > 100 µM
- TGI [54]: > 100 µM
- TGI [31]: > 100 µM
- TGI [32]: > 100 µM
- TGI [55]: > 100 µM
- TGI [33]: > 100 µM
- TGI [34]: > 100000 nM
- TGI [35]: > 100 µM
- TGI [36]: > 100 µM
- TGI [37]: > 100 µM
- TGI [38]: > 100 µM
- TGI [39]: > 100 µM
- TGI [40]: > 100 µM
- TGI [41]: > 100 µM
- TGI [42]: > 100 µM
- TGI [43]: > 100 µM
- TGI [44]: > 100 µM
- TGI [45]: > 100 µM
- TGI [46]: > 100 µM
- TGI [47]: > 100 µM
- TGI [48]: > 100 µM
- TGI [49]: > 100 µM
- TGI [56]: > 100 µM
- TGI [57]: > 100 µM
- TGI [50]: > 100 µM
- TGI [51]: > 100 µM
- TGI [58]: > 100 µM
- TGI [52]: > 100 µM
